Counter-ions that a name gives are not always drawn.

The first assay deals with T1, human NCX1 (Homo sapiens, UniProt P32418).
T1 construct: expressed in transfected cells
Nature of the assay: NCX1 inhibition, reverse mode (Ca2+ influx into cells), FLIPR Fluo-4 assay. Type of assay: cell-based. The settings on record: NCX1 reverse mode; at 30 μM; read-out: Inhibition in % at 30 μM (NCX1rv; IC50 value not determined). From the text: The sodium/calcium exchanger NCX1 can transport calcium ions and sodium ions through the cell membrane. The transport is an exchange of Ca^2+ and Na^+ in two directions depending on membrane potential and ion gradients. At the first direction, named “forward mode” or “calcium export mode”, Ca^2+ is transported out of the cell and Na^+ is transported into the cell. At the other direction, named “reverse mode” or “calcium import mode”, the transport directions are vice versa. The effect of the compounds of the invention on NCX1 was determined in CHO cells stably expressing human NCX1 (gene symbol SLC8A1; cf. WO 2009/115238). The assay is based on the monitoring of intracellular Ca^2+ concentrations using a calcium-sensitive fluorescence dye which is detected by means of a FLIPR device (Fluorimetric Imaging Plate Reader, Molecular Devices).
The assay is based on the monitoring of intracellular Ca^2+ concentrations using the calcium-sensitive dye Fluo-4. CHO cells expressing NCX1 were loaded with the dye by means of the acetoxymethyl ester Fluo-4 AM (Invitrogen, F14202), which is cleaved intracellularly by esterase activity to yield the charged species of free Fluo-4. After an preincubation period with the test compound, Gramicidine (Sigma, G5002) was added. Gramicidine is an ionophor for Na^+ ions mediating an increase of intracellular Na^+ ions. Consequently, intracellular Na^+ ions are exchanged against extracellular Ca^2+ ions (Ca^2+ influx, reverse mode). The intracellular elevation of Ca^2+ ions was detected by measuring the fluorescence of Fluo-4 at a wavelength of 520 nm by a FLIPR device.
Briefly, for the reverse mode transport assay 18000 cells per well were seeded into a 96 well microplate (Corning COSTAR 3904) and incubated overnight in culture medium (1× Nut Mix F12 (Ham) (Gibco, 21765-029); 10% (v/v) fetal calf serum (PAA Gold, A15-649); 450 μg/ml Geneticin (Gibco, 10131-027)). A total volume of 100 μl medium per well was used. For the preparation of the FLIPR assay, the culture medium was removed from the plates and 100 μl of dye solution (2 μM Fluo-4 AM; 0.02% (v/v) Pluronic F-127 (20%, Invitrogen, P3000MP); 0.1% (v/v) bovine albumin solution (30% (v/v), Sigma, A9205) in assay buffer (133.8 mM NaCl (Sigma, S5886); 4.7 mM KCl (Sigma, P3911); 1.25 mM MgCl2 (Merck, 1.05833.0250); 3.5 mM CaCl2 (Merck, 1.02083.0250); 5 mM glucose (Sigma, G7021); 10 mM Hepes (Sigma, H4034); 0.01% (v/v) Pluronic F-127 (5%, Sigma, P2443); 2.5 mM Probenecid (Maybridge, SB00915EB); pH 7.4)) were added into each well. The plates were incubated in the dark at room temperature for 80 min. After the incubation period, the dye solution was removed and the wells were washed with 100 μl of assay buffer. Then 80 μl of a solution of the test compound in assay buffer in different concentrations were added into the wells. The plates were incubated at 16° C. for 45 min. Meanwhile a 60 μM solution of Gramicidine in assay buffer (4° C.) was prepared and stored in the wells of a 96 well microplate (96 well microplate, polypropylene, U-shape (Greiner Bio-One, 650201)) at 4° C. until measurement was started. The fluorescence monitoring was performed at 240 measuring points with measurement intervals of 2 sec. After the fifth measuring point, 40 μl of the Gramicidine solution were added to each well of the assay plates to give a final Gramicidine concentration of 20 μM. For the determination of the IC50 values the minimal fluorescence value was subtracted from the maximal fluorescence value for all measuring points. The calculation of the IC50 values via the percentage inhibitions of Ca^2+ influx into cells (reverse mode) effected by the test compound was performed in Biost@t Speed 2.0.
Regarding `CC(C)C[C@H](NC(=O)c1cnc(Oc2ccc3c(c2)CC[C@@H](c2ccccc2)O3)s1)C(=O)OC(C)(C)C` [compound 229], the inhibition at 30 µM is 44%.

Staying with this assay, now noted: inhibition of NCX1 in reverse mode (Ca2+ influx into cells); read-out: NCX1rv IC50.
Take `Cn1nccc1CNC(=O)c1cnc(Oc2ccc3c(c2)CCC(c2ccccc2)O3)s1` (stereo not drawn) [compound 5]: the IC50 was 400 nM. On the same count and under the same terms, under `COC(=O)CNC(=O)c1cnc(Oc2ccc3c(c2)CCC(c2cccnc2)O3)s1` (stereo not drawn) [compound 250] stands 1200 nM. Take `COC(=O)C1CN(C(=O)c2cnc(Oc3ccc4c(c3)CC[C@@H](c3ccccc3)O4)s2)CC1C(F)(F)F` (stereo partly drawn) [compound 221]: the IC50 is 300 nM.

`O=C(N[C@H]1CCCC[C@H]1C(=O)O)c1cnc(Oc2ccc3c(c2)CC[C@@H](c2ccccc2)O3)s1` [compound 200]: the IC50 came out at 400 nM. Still for that read-out and setting: next, `C[C@H](NC(=O)c1cnc(Oc2ccc3c(c2)CC[C@@H](c2ccccc2)O3)s1)C(=O)O` [compound 191]: 600 nM; `Cc1nn(C)cc1CNCc1cnc(Oc2ccc3c(c2)CCC(c2ccccc2)O3)s1` (stereo not drawn) [compound 137]: 400 nM; `c1ccc(C2CCc3cc(Oc4ncc(CNCCCn5cccn5)s4)ccc3O2)cc1` (stereo not drawn) [compound 142]: 300 nM.

For the molecule `O=C(NC1C2CNCC21)c1cnc(Oc2ccc3c(c2)CCC(c2cccnc2)O3)s1` (stereo not drawn) [compound 268], the IC50 was found to be 2500 nM. Same read-out and setting: next, `O=C(NCc1cnc(Oc2ccc3c(c2)CCC(c2ccccc2)O3)s1)c1ncccn1` (stereo not drawn) [compound 87]: 400 nM; `Cc1noc(C)c1CCCNC(=O)c1cnc(Oc2ccc3c(c2)CCC(c2ccccc2)O3)s1` (stereo not drawn) [compound 38]: 300 nM; `Cc1nn(C)cc1C(C)NC(=O)c1cnc(Oc2ccc3c(c2)CCC(c2ccccc2)O3)s1` (stereo not drawn) [compound 23]: 800 nM. Same read-out and setting: next, `CC(C)(C)[C@H](NC(=O)c1cnc(Oc2ccc3c(c2)CCC(c2cccnc2)O3)s1)C(=O)O` (stereo partly drawn) [compound 273]: 10100 nM. As for `O=C(NCc1cnc(Oc2ccc3c(c2)CCC(c2ccccc2)O3)s1)c1ccnc(N2CCCCC2)c1` (stereo not drawn) [compound 75], the IC50 was found to be 9800 nM. In the case of `CC1Cc2cc(Oc3ncc(C(=O)NCCO)s3)ccc2OC1c1ccccc1` (stereo not drawn) [compound 364], the IC50 worked out at 960 nM. Still for that read-out and setting: under `Cc1c(C(C)NC(=O)c2cnc(Oc3ccc4c(c3)CCC(c3ccccc3)O4)s2)cnn1C` (stereo not drawn) [compound 8] stands 800 nM. The same measure, in the same setting: under `CN(C)CC1CN(C(=O)c2cnc(Oc3ccc4c(c3)CC[C@@H](c3ccccc3)O4)s2)CCO1` (stereo partly drawn) [compound 286] stands 1500 nM. The same measure, in the same setting: next, `CCC(CC)NCc1cnc(Oc2ccc3c(c2)CCC(c2ccccc2)O3)s1` (stereo not drawn) [compound 106]: 500 nM; `CCn1cc(CNCc2cnc(Oc3ccc4c(c3)CCC(c3ccccc3)O4)s2)c(C)n1` (stereo not drawn) [compound 139]: 500 nM.

For the molecule `Cc1cc(CNC(=O)c2cnc(Oc3ccc4c(c3)CC[C@@H](c3ccccc3)O4)s2)ccn1` [compound 274, hydrochloride], the IC50 was determined as 400 nM. In the case of `c1ccc([C@@H]2CCc3cc(Oc4ncc(CNCc5ccno5)s4)ccc3O2)cc1` [compound 210], the IC50 is 100 nM. On the same count and under the same terms, next, `COC(=O)[C@@H](C)NC(=O)c1cnc(Oc2ccc3c(c2)CC[C@@H](c2ccccc2)O3)s1` [compound 184]: 400 nM; `Cc1ccccc1C1CCc2cc(Oc3ncc(CNC(=O)CN4C(=O)CNC4=O)s3)ccc2O1` (stereo not drawn) [compound 328]: 900 nM. On the same count and under the same terms, under `c1ccc(C2CCc3cc(Oc4ncc(CN5CCCC5)s4)ccc3O2)cc1` (stereo not drawn) [compound 104] stands 400 nM; under `COC(=O)C1(C)CCN(C(=O)c2cnc(Oc3ccc4c(c3)CC[C@@H](c3ccccc3)O4)s2)C1` (stereo partly drawn) [compound 225], 500 nM. On the same count and under the same terms, next, `c1ccc(C2CCc3cc(Oc4ncc(CNCc5cccnc5N5CCOCC5)s4)ccc3O2)cc1` (stereo not drawn) [compound 145]: 900 nM. Regarding `O=C(CN1CCCC1)NCc1cnc(Oc2ccc3c(c2)CCC(c2ccccc2)O3)s1` (stereo not drawn) [compound 346, hydrochloride], the IC50 came out at 170 nM. The same measure, in the same setting: next, `O=C(NCc1ccnc(O)c1)c1cnc(Oc2ccc3c(c2)CCC(c2ccccc2)O3)s1` (stereo not drawn) [compound 42]: 200 nM. Still for that read-out and setting: next, `Cc1nc(Oc2ccc3c(c2)CCC(c2ccccc2)O3)sc1C(=O)NCc1ccnc(Cl)c1` (stereo not drawn) [compound 167, hydrochloride]: 500 nM; `Cc1noc(C)c1CC(=O)NCc1cnc(Oc2ccc3c(c2)CCC(c2ccccc2)O3)s1` (stereo not drawn) [compound 77]: 400 nM.

With `NC(=O)c1cnc(Oc2ccc3c(c2)CCC(c2ccccc2)O3)s1` (stereo not drawn) [compound 339], the IC50 was determined as 400 nM. Still for that read-out and setting: under `Cc1nc(Oc2ccc3c(c2)CC[C@@H](c2ccccc2)O3)sc1C(=O)NCc1ccno1` [compound 168] stands 200 nM; under `FC1(F)CCN(Cc2cnc(Oc3ccc4c(c3)CCC(c3ccccc3)O4)s2)CC1` (stereo not drawn) [compound 109], 700 nM; under `Nc1cc(CNCc2cnc(Oc3ccc4c(c3)CCC(c3ccccc3)O4)s2)ccn1` (stereo not drawn) [compound 155], 400 nM. On to `O=C(c1cnc(Oc2ccc3c(c2)CC[C@@H](c2ccccc2)O3)s1)N1CCC[C@H]1CO` [compound 205], for which the IC50 amounted to 300 nM. Turning to `CCn1cc(C(=O)NCc2cnc(Oc3ccc4c(c3)CCC(c3ccccc3)O4)s2)cn1` (stereo not drawn) [compound 72], the half-inhibitory concentration (IC50) was 300 nM. `OCCN(CCO)Cc1cnc(Oc2ccc3c(c2)CC[C@@H](c2ccccc2)O3)s1` [compound 258]: the IC50 worked out at 200 nM. Still for that read-out and setting: under `CC[C@H](NC(=O)c1cnc(Oc2ccc3c(c2)CCC(c2ccccc2)O3)s1)c1ccc(OC)nc1` (stereo partly drawn) [compound 22] stands 400 nM. As for `O=C(NCc1ccno1)c1cnc(Oc2ccc3c(c2)CC[C@H](c2ccccc2)O3)s1` [compound 172], the IC50 was found to be 400 nM. For the molecule `CN1CC(=O)N(CC(=O)NCc2cnc(Oc3ccc4c(c3)CCC(c3ccccc3)O4)s2)C1=O` (stereo not drawn) [compound 164], the IC50 came to 700 nM.

Regarding `CCCNCc1cnc(Oc2ccc3c(c2)CCC(c2ccccc2)O3)s1` (stereo not drawn) [compound 116], the IC50 was found to be 200 nM. On the same count and under the same terms, under `Cc1ccn(CC(=O)NCc2cnc(Oc3ccc4c(c3)CCC(c3ccccc3)O4)s2)n1` (stereo not drawn) [compound 74] stands 300 nM; under `O=C(Cc1cccnc1)NCc1cnc(Oc2ccc3c(c2)CCC(c2ccccc2)O3)s1` (stereo not drawn) [compound 16, hydrochloride], 100 nM.

Turning to `CCCCN(C)Cc1cnc(Oc2ccc3c(c2)CCC(c2ccccc2)O3)s1` (stereo not drawn) [compound 99], the IC50 is 700 nM.

As for `O=C(NCc1cnc(Oc2ccc3c(c2)CCC(c2ccccc2)O3)s1)c1ccnc(N2CCOCC2)c1` (stereo not drawn) [compound 83], the 50% inhibitory concentration (IC50) worked out at 2100 nM.

On to `C[C@@H]1CN(Cc2cnc(Oc3ccc4c(c3)CCC(c3ccccc3)O4)s2)C[C@H](C)O1` (stereo partly drawn) [compound 100], for which the IC50 turned out to be 1000 nM.

Turning to `CC[C@H](C)[C@H](NC(=O)c1cnc(Oc2ccc3c(c2)CCC(c2cccnc2)O3)s1)C(=O)O` (stereo partly drawn) [compound 270], the IC50 was 12500 nM.

For `Cc1cc(C(=O)NCc2cnc(Oc3ccc4c(c3)CCC(c3ccccc3)O4)s2)n(C)n1` (stereo not drawn) [compound 66], the IC50 came out at 600 nM. Turning to `CO[C@H]1CNC[C@@H]1NC(=O)c1cnc(Oc2ccc3c(c2)CCC(c2cccnc2)O3)s1` (stereo partly drawn) [compound 269, hydrochloride], the IC50 is 2600 nM.

Regarding `O=S(=O)(NCc1cnc(Oc2ccc3c(c2)CCC(c2ccccc2)O3)s1)c1cccnc1` (stereo not drawn) [compound 47, hydrochloride], the IC50 turned out to be 100 nM. For `c1ccc(C2CCc3cc(Oc4ncc(CNCc5ccno5)s4)ccc3O2)cc1` (stereo not drawn) [compound 159], the IC50 was 100 nM.
